Laboratory results: patent US7531623B2, “Hydrochloride salts of a glycopeptide phosphonate derivative” (Theravance, Inc., priority 2003, dated 2009)

Test: Stability of hydrochloride salts of telavancin on storage (HPLC area % of pseudoaglycone and aglycone impurities)
Assay type: physicochemical
Settings: for Aglycone of Cmpd 1 (HPLC area %) Initial / Pseudoaglycone of Cmpd 1 (HPLC area %) Initial: before storage at 25° C.; for Aglycone of Cmpd 1 (HPLC area %) 2 Week / Pseudoaglycone of Cmpd 1 (HPLC area %) 2 Week: stored at 25° C. for 2 weeks, glass vials; for Aglycone of Cmpd 1 (HPLC area %) 2-Week Change / Pseudoaglycone of Cmpd 1 (HPLC area %) 2-Week Change: stored at 25° C., difference between 2-week and initial value
Description: In the examples described below, HPLC sample analysis was conducted using an Agilent (Palo Alto, Calif.) Series 1100 instrument with Zorbax RP-Bonus 4.6 mm×250 mm columns, supplied by Agilent, having a 5 micron pore size, packed on C14 silica. Detection was by UV absorbance at 254 nm. Mobile phase A was 2%-98%-0.1% ACN-H2O-TFA; and mobile phase B was 90%-10%-0.1% ACN-H2O-TFA. A flow rate of 1.0 mL/min was used with moble phase A containing a gradient of mobile phase B as follows: 10 to 43% B for 30 min;, 43% B for 5 min; 43 to 100% B for 5 min; 100 to 10% B for 1 min; and 10% B for 14 min.
The effect of chloride ion content on the stability of hydrochloride salts of telavancin stored at −20° C., 5° C. and 25° C. was determined.
Eight lots of telavancin hydrochloride salts prepared as described in Example 2 were placed in identical glass vials and stored at −20° C., 5° C. and 25° C. under otherwise identical conditions for two weeks. The changes in HPLC area % for the pseudoaglycone and aglycone impurities were used to evaluate relative stability.
For each sample, the pH of the mixture from which it was isolated, is indicated. The column entitled, “2 Week Change” is the difference in HPLC area % between the value observed after two weeks and the initial value and is graphically illustrated in FIGS. 1 and 2.

| Structure (SMILES) | Aglycone of Cmpd 1 (HPLC area %) Initial [HPLC area %] | Pseudoaglycone of Cmpd 1 (HPLC area %) Initial [HPLC area %] | Aglycone of Cmpd 1 (HPLC area %) 2 Week [HPLC area %] | Pseudoaglycone of Cmpd 1 (HPLC area %) 2 Week [HPLC area %] | Aglycone of Cmpd 1 (HPLC area %) 2-Week Change | Pseudoaglycone of Cmpd 1 (HPLC area %) 2-Week Change |
| --- | --- | --- | --- | --- | --- | --- |
| CCCCCCCCCCNCCN[C@@]1(C)C[C@H](O[C@H]2[C@H](Oc3c4cc5cc3Oc3ccc(cc3Cl)[C@@H](O)[C@@H](NC(=O)[C@@H](CC(C)C)NC)C(=O)N[C@@H](CC(N)=O)C(=O)N[C@H]5C(=O)N[C@H]3C(=O)N[C@H](C(=O)N[C@H](C(=O)O)c5cc(O)c(CNCP(=O)(O)O)c(O)c5-c5cc3ccc5O)[C@H](O)c3ccc(c(Cl)c3)O4)O[C@H](CO)[C@@H](O)[C@@H]2O)O[C@@H](C)[C@H]1O [2.42, telavancin] | 0.03 | 0.32 | 0.05 | 0.40 | +0.02 HPLC area % | +0.08 HPLC area % |
| CCCCCCCCCCNCCN[C@@]1(C)C[C@H](O[C@H]2[C@H](Oc3c4cc5cc3Oc3ccc(cc3Cl)[C@@H](O)[C@@H](NC(=O)[C@@H](CC(C)C)NC)C(=O)N[C@@H](CC(N)=O)C(=O)N[C@H]5C(=O)N[C@H]3C(=O)N[C@H](C(=O)N[C@H](C(=O)O)c5cc(O)c(CNCP(=O)(O)O)c(O)c5-c5cc3ccc5O)[C@H](O)c3ccc(c(Cl)c3)O4)O[C@H](CO)[C@@H](O)[C@@H]2O)O[C@@H](C)[C@H]1O [3.68, telavancin] | 0.06 | 0.43 | 0.08 | 0.51 | +0.02 HPLC area % | +0.08 HPLC area % |
| CCCCCCCCCCNCCN[C@@]1(C)C[C@H](O[C@H]2[C@H](Oc3c4cc5cc3Oc3ccc(cc3Cl)[C@@H](O)[C@@H](NC(=O)[C@@H](CC(C)C)NC)C(=O)N[C@@H](CC(N)=O)C(=O)N[C@H]5C(=O)N[C@H]3C(=O)N[C@H](C(=O)N[C@H](C(=O)O)c5cc(O)c(CNCP(=O)(O)O)c(O)c5-c5cc3ccc5O)[C@H](O)c3ccc(c(Cl)c3)O4)O[C@H](CO)[C@@H](O)[C@@H]2O)O[C@@H](C)[C@H]1O [3.94, telavancin] | 0.04 | 0.43 | 0.09 | 0.56 | +0.05 HPLC area % | +0.13 HPLC area % |
| CCCCCCCCCCNCCN[C@@]1(C)C[C@H](O[C@H]2[C@H](Oc3c4cc5cc3Oc3ccc(cc3Cl)[C@@H](O)[C@@H](NC(=O)[C@@H](CC(C)C)NC)C(=O)N[C@@H](CC(N)=O)C(=O)N[C@H]5C(=O)N[C@H]3C(=O)N[C@H](C(=O)N[C@H](C(=O)O)c5cc(O)c(CNCP(=O)(O)O)c(O)c5-c5cc3ccc5O)[C@H](O)c3ccc(c(Cl)c3)O4)O[C@H](CO)[C@@H](O)[C@@H]2O)O[C@@H](C)[C@H]1O [4.41, telavancin] | 0.06 | 0.42 | – | 0.53 | – | +0.11 HPLC area % |
| CCCCCCCCCCNCCN[C@@]1(C)C[C@H](O[C@H]2[C@H](Oc3c4cc5cc3Oc3ccc(cc3Cl)[C@@H](O)[C@@H](NC(=O)[C@@H](CC(C)C)NC)C(=O)N[C@@H](CC(N)=O)C(=O)N[C@H]5C(=O)N[C@H]3C(=O)N[C@H](C(=O)N[C@H](C(=O)O)c5cc(O)c(CNCP(=O)(O)O)c(O)c5-c5cc3ccc5O)[C@H](O)c3ccc(c(Cl)c3)O4)O[C@H](CO)[C@@H](O)[C@@H]2O)O[C@@H](C)[C@H]1O [4.59, telavancin] | 0.10 | 0.52 | 0.17 | 0.72 | +0.07 HPLC area % | +0.20 HPLC area % |
| CCCCCCCCCCNCCN[C@@]1(C)C[C@H](O[C@H]2[C@H](Oc3c4cc5cc3Oc3ccc(cc3Cl)[C@@H](O)[C@@H](NC(=O)[C@@H](CC(C)C)NC)C(=O)N[C@@H](CC(N)=O)C(=O)N[C@H]5C(=O)N[C@H]3C(=O)N[C@H](C(=O)N[C@H](C(=O)O)c5cc(O)c(CNCP(=O)(O)O)c(O)c5-c5cc3ccc5O)[C@H](O)c3ccc(c(Cl)c3)O4)O[C@H](CO)[C@@H](O)[C@@H]2O)O[C@@H](C)[C@H]1O [4.69, telavancin] | 0.07 | 0.45 | 0.13 | 0.62 | +0.06 HPLC area % | +0.17 HPLC area % |
| CCCCCCCCCCNCCN[C@@]1(C)C[C@H](O[C@H]2[C@H](Oc3c4cc5cc3Oc3ccc(cc3Cl)[C@@H](O)[C@@H](NC(=O)[C@@H](CC(C)C)NC)C(=O)N[C@@H](CC(N)=O)C(=O)N[C@H]5C(=O)N[C@H]3C(=O)N[C@H](C(=O)N[C@H](C(=O)O)c5cc(O)c(CNCP(=O)(O)O)c(O)c5-c5cc3ccc5O)[C@H](O)c3ccc(c(Cl)c3)O4)O[C@H](CO)[C@@H](O)[C@@H]2O)O[C@@H](C)[C@H]1O [5.60, telavancin] | 0.15 | 0.48 | 0.41 | 1.11 | – | – |
| CCCCCCCCCCNCCN[C@@]1(C)C[C@H](O[C@H]2[C@H](Oc3c4cc5cc3Oc3ccc(cc3Cl)[C@@H](O)[C@@H](NC(=O)[C@@H](CC(C)C)NC)C(=O)N[C@@H](CC(N)=O)C(=O)N[C@H]5C(=O)N[C@H]3C(=O)N[C@H](C(=O)N[C@H](C(=O)O)c5cc(O)c(CNCP(=O)(O)O)c(O)c5-c5cc3ccc5O)[C@H](O)c3ccc(c(Cl)c3)O4)O[C@H](CO)[C@@H](O)[C@@H]2O)O[C@@H](C)[C@H]1O [5.74, telavancin] | 0.43 | 0.89 | 1.08 | 1.94 | – | – |
